The text below walks through data of patent publication US8318928B2, “Fused imidazole carboxamides as TRPV3 modulators” (Glenmark Pharmaceuticals, S.A., priority 2008, dated 2012).

The experiment addresses T1, Human TRPV3 expressing CHO cells (Homo sapiens, UniProt Q8NET8).
T1 construct: expressed in transfected cells; host or cells: CHO cells, kept under G-418 selection
T1 sequence (Q8NET8 1-790): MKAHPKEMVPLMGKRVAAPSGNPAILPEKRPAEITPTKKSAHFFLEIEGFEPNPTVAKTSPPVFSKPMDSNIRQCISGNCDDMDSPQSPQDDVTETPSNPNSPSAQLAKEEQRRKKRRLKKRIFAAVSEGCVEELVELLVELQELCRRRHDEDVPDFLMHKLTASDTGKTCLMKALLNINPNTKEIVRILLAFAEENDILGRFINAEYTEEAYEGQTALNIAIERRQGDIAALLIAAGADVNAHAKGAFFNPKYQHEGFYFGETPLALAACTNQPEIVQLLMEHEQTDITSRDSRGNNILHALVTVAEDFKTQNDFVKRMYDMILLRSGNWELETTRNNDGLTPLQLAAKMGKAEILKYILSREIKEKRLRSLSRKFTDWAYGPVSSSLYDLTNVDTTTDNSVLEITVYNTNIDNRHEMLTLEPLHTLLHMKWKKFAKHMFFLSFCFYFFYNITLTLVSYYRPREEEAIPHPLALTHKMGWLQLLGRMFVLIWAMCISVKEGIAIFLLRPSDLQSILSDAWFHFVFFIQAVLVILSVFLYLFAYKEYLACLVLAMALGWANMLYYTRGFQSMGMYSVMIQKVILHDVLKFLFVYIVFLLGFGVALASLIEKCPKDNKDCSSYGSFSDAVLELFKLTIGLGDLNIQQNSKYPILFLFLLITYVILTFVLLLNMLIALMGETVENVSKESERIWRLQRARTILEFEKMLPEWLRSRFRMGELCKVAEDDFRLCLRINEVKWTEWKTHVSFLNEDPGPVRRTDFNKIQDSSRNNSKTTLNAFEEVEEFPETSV
Nature of the experiment: 45Calcium uptake assay: inhibition of 2-APB induced cellular uptake of radioactive calcium. The experiment is classed as cell-based. The following applies: 2-APB 500 μM; for IC50: class symbols; for inhibition at 1 µM / Percentage inhibition at 1.0 μM: compound at 1.0 μM; for inhibition at 1 µM: read-out: Percentage inhibition at 1.0 μM; for inhibition at 10 µM / Percentage inhibition at 10.0 μM: compound at 10.0 μM; for inhibition at 10 µM: read-out: Percentage inhibition at 10.0 μM. The text has this:
Certain illustrative compounds within the scope of the present invention are screened for TRPV3 activity according to a modified procedure described in (a) Tóth, A. et al. Life Sciences 2003, 73, 487-498. (b) McNamara C, R. et al. Proc. Natl. Acad. Sci. U.S.A., 2007, 104, 13525-13530. The screening of the compounds may be carried out by other methods and procedures known to persons skilled in the art.
Screening for TRPV3 Antagonist Using the ^45Calcium Uptake Assay
The inhibition of TRPV3 receptor activation was followed as inhibition of 2-aminoethxydiphenylborate (2-APB) induced cellular uptake of radioactive calcium. Test compounds were dissolved in dimethyl sulfoxide (DMSO) to prepare 20 mM stock solution and then diluted using plain medium with DMEM/F-12 containing 1.8 mM CaCl2 to get desired concentration. Final concentration of DMSO in the reaction was 0.5% (v/v). Human TRPV3 expressing CHO cells were grown in DMEM/F-12 medium with 10% FBS, 1% penicillin-streptomycin solution, 400 μg/mL of G-418. Cells were seeded 24 h prior to the assay in 96 well plates so as to get ˜50,000 cells per well on the day of experiment. Cells were treated with test compounds for 10 minutes followed by addition of 2-APB at a final concentration of 500 μM and 5 μCi/mL ^45Ca^+2 for 4 minutes. Cells were washed and lysed using buffer containing 1% Triton X-100, 0.1% deoxycholate and 0.1% SDS. Radioactivity in the lysate was measured in Packardt Top count after addition of liquid scintillant. Concentration response curves were plotted as a % of maximal response obtained in the absence of test antagonist. IC50 value was calculated from concentration response curve by nonlinear regression analysis using GraphPad PRISM software.
Percentage inhibition at concentrations of 1.0 μM and 10.0 μM are given in the table along with IC50 (nM) details for selected examples.

What is called IC50 is the midpoint of a concentration-inhibition curve. As a reminder, the inhibition is the percentage by which the read-out fell short of the control. `CCN(C(=O)c1c(/C=C/c2cccc(OC)c2OCC(C)(C)C)nc2sccn12)c1nc(C(F)(F)F)cs1` [Example 11, N-Ethyl-6-{(E)-2-[2-(2,2-dimethylpropoxy)-3-methoxyphenyl]vinyl}-N-[4-(trifluoro-methyl)-1,3-thiazol-2-yl]imidazo[2,1-b][1,3]thiazole-5-carboxamide]: the IC50 was under 100 nM, the inhibition at 1 µM was found to be 75.1% and the inhibition at 10 µM amounted to 84.8%.

On to `COc1cccc(/C=C/c2nc3sccn3c2C(=O)Nc2nnc(C(F)(F)F)s2)c1OCC(C)(C)C` [Example 12, 6-{(E)-2-[2-(2,2-Dimethylpropoxy)-3-methoxyphenyl]vinyl}-N-[5-(trifluoromethyl)-1,3,4-thiadiazol-2-yl]imidazo[2,1-b][1,3]thiazole-5-carboxamide], for which the inhibition at 1 µM was determined as 13.3% and the inhibition at 10 µM was 82.8%.

As for `COc1cccc(/C=C/c2nc3sccn3c2C(=O)Nc2nc(C(F)(F)F)co2)c1OCC(C)(C)C` [Example 13, 6-{[(E)-2-(2,2-Dimethylpropoxy)-3-methoxyphenyl]vinyl}-N-[4-(trifluoromethyl)-1,3-oxazol-2-yl]imidazo[2,1-b][1,3]thiazole-5-carboxamide], the “Percentage inhibition at 1.0 μM” value is recorded as 10.75% and the “Percentage inhibition at 10.0 μM” value came out at 31.51%.

Turning to `COc1cccc(/C=C/c2nc3sccn3c2C(=O)N2CCn3c(nnc3C(F)(F)F)C2)c1OCC(C)(C)C` [Example 14], the “Percentage inhibition at 1.0 μM” value is recorded as 10.33% and the “Percentage inhibition at 10.0 μM” value is 15.45%.

As to `COc1cccc(/C=C/c2nc3sccn3c2C(=O)Nc2nc(-c3ccc(C#N)cc3)cs2)c1OCC(C)(C)C` [Example 15, N-[4-(4-Cyanophenyl)-1,3-thiazol-2-yl]-6-{(E)-2-[2-(2,2-dimethylpropoxy)-3-methoxyphenyl]vinyl}imidazo[2,1-b][1,3]thiazole-5-carboxamide], the inhibition at 1 µM came out at 20.7% and the inhibition at 10 µM amounted to 26.6%.

On to `COc1cccc(/C=C/c2nc3sccn3c2C(=O)Nc2nc(C(F)(F)F)cs2)c1OC1CCCC1` [Example 16, 6-[(E)-2-(2-Cyclopentyloxy-3-methoxyphenyl)vinyl]-N-[4-(trifluoromethyl)-1,3-thiazol-2-yl]imidazo[2,1-b][1,3]thiazole-5-carboxamide], for which the IC50 was in the range of 250 to 1000 nM, the inhibition at 1 µM came out at 81.7% and the inhibition at 10 µM is 93.1%.

As to `O=C(Nc1nc(C(F)(F)F)cs1)c1c(/C=C/c2cccc(OC(F)F)c2OC2CCCC2)nc2sccn12` [Example 17, 6-{(E)-2-[2-Cyclopentyloxy-3-(difluoromethoxy)phenyl]vinyl}-N-[4-(trifluoromethyl)-1,3-thiazol-2-yl]imidazo[2,1-b][1,3]thiazole-5-carboxamide], the concentration for half-maximal inhibition (IC50) fell in the range of 250 to 1000 nM, the inhibition at 1 µM worked out at 85.3% and the inhibition at 10 µM stood at 94.6%.

Regarding `CC(C)(C)COc1c(/C=C/c2nc3sccn3c2C(=O)Nc2nc(C(F)(F)F)cs2)cccc1OC(F)F` [Example 18, 6-{(E)-2-[3-Difluoromethoxy-2-(2,2-dimethylpropoxy)phenyl]vinyl}-N-[4-(trifluoro-methyl)-1,3-thiazol-2-yl]imidazo[2,1-b][1,3]thiazole-5-carboxamide], the IC50 was under 100 nM, the inhibition at 1 µM stood at 96.9% and the inhibition at 10 µM stood at 98.2%.

With `O=C(Nc1nc(C(F)(F)F)cs1)c1c(/C=C/c2cccc(O)c2O)nc2sccn12` [Example 19, 6-[(E)-2-(2,3-Dihydroxyphenyl)vinyl]-N-[4-(trifluoromethyl)-1,3-thiazol-2-yl]imidazo[2,1-b][1,3]thiazole-5-carboxamide], the inhibition at 1 µM stood at 13.9% and the inhibition at 10 µM is 4.88%.

As to `CC(C)c1csc(NC(=O)c2c(/C=C/c3cccc(OC(F)F)c3OCC(C)(C)C)nc3sccn23)n1` [Example 20, 6-{(E)-2-[2-(2,2-Dimethylpropoxy)-3-(difluoromethoxy)phenyl]vinyl}-N-(4-isopropyl-1,3-thiazol-2-yl)imidazo[2,1-b][1,3]thiazole-5-carboxamide], the inhibition at 1 µM stood at 53.3% and the inhibition at 10 µM is 81.7%.

On to `CC(C)(C)COc1c(/C=C/c2nc3sccn3c2C(=O)Nc2nc(C(C)(C)C)cs2)cccc1OC(F)F` [Example 21, 6-[(E)-2-(3-(Difluoromethoxy)-2-(2,2-dimethylpropoxy)-phenyl)vinyl]-N-(4-tert-butyl-1,3-thiazol-2-yl)imidazo[2,1-b][1,3]thiazole-5-carboxamide], for which the IC50 was in the range of 100 to 250 nM, the inhibition at 1 µM came to 80.8% and the inhibition at 10 µM was found to be 89.8%.

As for `CC(C)(C)COc1c(/C=C/c2nc3sccn3c2C(=O)Nc2nc(C3CCC3)cs2)cccc1OC(F)F` [Example 22, 6-{(E)-2-[2-(2,2-Dimethylpropoxy)-3-(difluoromethoxy)phenyl]vinyl}-N-(4-cyclobutyl-1,3-thiazol-2-yl)imidazo[2,1-b][1,3]thiazole-5-carboxamide], the inhibition at 1 µM was 47.9% and the inhibition at 10 µM came out at 86.5%.

Consider `CC(C)(C)COc1c(/C=C/c2nc3sccn3c2C(=O)Nc2nc(C3CC3)cs2)cccc1OC(F)F` [Example 23, 6-{(E)-2-[2-(2,2-Dimethylpropoxy)-3-(difluoromethoxy)phenyl]vinyl}-N-(4-cyclo-propyl-1,3-thiazol-2-yl)imidazo[2,1-b][1,3]thiazole-5-carboxamide], for which the IC50 was under 100 nM, the inhibition at 1 µM was determined as 93.2% and the inhibition at 10 µM is 90%.

`CC(C)(C)COc1c(/C=C/c2nc3sccn3c2C(=O)Nc2cccc(C(F)(F)F)c2)cccc1OC(F)F` [Example 24, 6-{(E)-2-[3-(Difluoromethoxy)-2-(2,2-dimethylpropoxy)phenyl]vinyl}-N-(3-trifluoromethylphenyl)imidazo[2,1-b][1,3]thiazole-5-carboxamide]: the inhibition at 1 µM is 22.5% and the inhibition at 10 µM turned out to be 37.3%.

Turning to `CC(C)(C)COc1c(/C=C/c2nc3sccn3c2C(=O)NCc2cccc(C(F)(F)F)c2)cccc1OC(F)F` [Example 25, 6-{(E)-2-[3-(Difluoromethoxy)-2-(2,2-dimethylpropoxy)phenyl]vinyl}-N-(3-trifluoromethylbenzyl)imidazo[2,1-b][1,3]thiazole-5-carboxamide], the inhibition at 1 µM was 0% and the inhibition at 10 µM stood at 18.2%.

`CC(C)(C)COc1c(/C=C/c2nc3sccn3c2C(=O)Nc2ccc(C#N)cn2)cccc1OC(F)F` [Example 26, N-(5-Cyanopyridin-2-yl)-6-{(E)-2-[3-(difluoromethoxy)-2-(2,2-dimethylpropoxy)phenyl]vinyl}imidazo[2,1-b][1,3]thiazole-5-carboxamide]: the inhibition at 1 µM amounted to 70.1% and the inhibition at 10 µM came out at 77.5%.

Consider `CC(C)(C)COc1c(/C=C/c2nc3sccn3c2C(=O)Nc2ncc(C(F)(F)F)cc2Cl)cccc1OC(F)F` [Example 27, N-[3-Chloro-5-(trifluoromethyl)pyridin-2-yl]-6-{(E)-2-[3-(difluoromethoxy)-2-(2,2-dimethylpropoxy)phenyl]vinyl}imidazo[2,1-b][1,3]thiazole-5-carboxamide], for which the inhibition at 1 µM amounted to 25.7% and the inhibition at 10 µM stood at 33.9%.
